Test results published in ChEMBL document CHEMBL1201862, “PubChem BioAssay data set” (2004).
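Tested at 5 concentrations; 48 h exposure; 96-well plates; endpoints linearly interpolated, else capped at highest concentration. GI50: concentration for 50% inhibition of growth.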 Active and inactive are the calls of the source. No stated cut-off is given here; in the data, active = GI50 up to about 1.1 µM and inactive = higher.

Tests used:
Test in all cases: NCI tumour cell line growth inhibition, 48 h
COLO 205 = test system: COLO 205
OVCAR-4 = test system: OVCAR-4
MDA-MB-231 = test system: MDA-MB-231
CAKI-1 = test system: CAKI-1
HOP-62 = test system: HOP-62
SK-OV-3 = test system: SK-OV-3
HT-29 = test system: HT-29
ACHN = test system: ACHN
PC-3 = test system: PC-3
KM12 = test system: KM12
NCI/ADR-RES = test system: NCI/ADR-RES
IGROV-1 = test system: IGROV-1
UACC-62 = test system: UACC-62
NCI-H460 = test system: NCI-H460
SK-MEL-5 = test system: SK-MEL-5
HCT-15 = test system: HCT-15
786-0 = test system: 786-0
RPMI-8226 = test system: RPMI-8226
K562 = test system: K562
DU-145 = test system: DU-145

SMILES | GI50 (COLO 205) | GI50 (OVCAR-4) | GI50 (MDA-MB-231) | GI50 (CAKI-1) | GI50 (HOP-62) | GI50 (SK-OV-3) | GI50 (HT-29) | GI50 (ACHN) | GI50 (PC-3) | GI50 (KM12) | GI50 (NCI/ADR-RES) | GI50 (IGROV-1) | GI50 (UACC-62) | GI50 (NCI-H460) | GI50 (SK-MEL-5) | GI50 (HCT-15) [µM] | GI50 (786-0) | GI50 (RPMI-8226) | GI50 (K562) | GI50 (DU-145)
COc1ccc(-c2c(C#N)c(O)n(NS(=O)(=O)c3ccc(C)cc3)c(=O)c2C#N)cc1 | > 100 µM (inactive) | 81.5 µM (inactive) | > 100 µM (inactive) | > 100 µM (inactive) | 99.3 µM (inactive) | > 100 µM (inactive) | > 100 µM (inactive) | 47.9 µM (inactive) | 71.4 µM (inactive) | > 100 µM (inactive) | 61.9 µM (inactive) | 35.8 µM (inactive) | 81.7 µM (inactive) | 46.2 µM (inactive) | 42.1 µM (inactive) | 49.1 | 67.1 µM (inactive) | 19.5 µM (inactive) | – | –
COC(=O)C(/C(=N/N)C(=O)Nc1cc(Cl)c(Cl)cc1Cl)c1nc2ccc(Cl)cc2nc1O (centres undefined) | – | 2.79 µM (inactive) | > 100 µM (inactive) | > 100 µM (inactive) | > 100 µM (inactive) | > 100 µM (inactive) | > 100 µM (inactive) | 44.8 µM (inactive) | > 100 µM (inactive) | > 100 µM (inactive) | 84.5 µM (inactive) | 45 µM (inactive) | > 100 µM (inactive) | > 100 µM (inactive) | > 100 µM (inactive) | > 100 | > 100 µM (inactive) | > 100 µM (inactive) | > 100 µM (inactive) | –
C[N+](C)(C)CC(=O)N/N=C/c1oc(-c2c(O)ccc3ccccc23)c(-c2c(O)ccc3ccccc23)c1[N+](=O)[O-] | 21.9 µM (inactive) | 21.5 µM (inactive) | – | 24.7 µM (inactive) | – | 14.2 µM (inactive) | 13.2 µM (inactive) | 3.31 µM (inactive) | – | 11.5 µM (inactive) | – | 11 µM (inactive) | 1.53 µM (inactive) | 19.5 µM (inactive) | 8.87 µM (inactive) | – | 19.9 µM (inactive) | 27 µM (inactive) | 12.6 µM (inactive) | 15.4 µM (inactive)
C=C1C(=O)C23[C@H](O)C1CC[C@H]2[C@]12COC3(O)[C@@H](O)[C@@H]1C(C)(C)CC[C@@H]2O | 0.452 µM (active) | 18 µM (inactive) | – | 1.98 µM (inactive) | 20.6 µM (inactive) | 17.1 µM (inactive) | 14.4 µM (inactive) | 16.1 µM (inactive) | – | 16.9 µM (inactive) | – | 21.4 µM (inactive) | 10.9 µM (inactive) | 16 µM (inactive) | 15.1 µM (inactive) | 3.33 | 11 µM (inactive) | 4.08 µM (inactive) | 3.09 µM (inactive) | –
CN(C)CC1CCC/C(=C\c2ccc(Cl)c(Cl)c2)C1=O (centres undefined) | 2.67 µM (inactive) | 3.05 µM (inactive) | 4.65 µM (inactive) | 2.59 µM (inactive) | 9.04 µM (inactive) | 6.78 µM (inactive) | 8.45 µM (inactive) | 4.18 µM (inactive) | – | 1.84 µM (inactive) | 3.05 µM (inactive) | 3.56 µM (inactive) | 3.61 µM (inactive) | 9.2 µM (inactive) | 9.82 µM (inactive) | 2.41 | 1.75 µM (inactive) | 0.205 µM (active) | 1.93 µM (inactive) | 10.9 µM (inactive)
CC1=C(C)CC2(SC1)C(=O)c1ccccc1C2=O | > 100 µM (inactive) | > 100 µM (inactive) | – | 65.9 µM (inactive) | > 100 µM (inactive) | > 100 µM (inactive) | > 100 µM (inactive) | > 100 µM (inactive) | – | > 100 µM (inactive) | – | > 100 µM (inactive) | > 100 µM (inactive) | > 100 µM (inactive) | > 100 µM (inactive) | > 100 | > 100 µM (inactive) | > 100 µM (inactive) | > 100 µM (inactive) | –
N#Cc1c(-c2ccccc2)cc(-c2cccs2)c(C#N)c1N | > 10 µM (inactive) | > 100 µM (inactive) | – | > 100 µM (inactive) | > 100 µM (inactive) | > 10 µM (inactive) | > 100 µM (inactive) | > 100 µM (inactive) | – | > 100 µM (inactive) | – | > 10 µM (inactive) | > 10 µM (inactive) | > 100 µM (inactive) | > 100 µM (inactive) | > 100 | > 100 µM (inactive) | > 100 µM (inactive) | > 100 µM (inactive) | –
COc1cc2c(cc1O)[C@H](C)C(c1ccc(OC)c(OC)c1)O2 (some centres undefined) | 20.4 µM (inactive) | 13 µM (inactive) | – | 3.67 µM (inactive) | 9.46 µM (inactive) | 9.48 µM (inactive) | 18 µM (inactive) | 10.6 µM (inactive) | – | 16.7 µM (inactive) | – | 2.04 µM (inactive) | 3.09 µM (inactive) | 2.13 µM (inactive) | 6.01 µM (inactive) | 3.08 | 11.3 µM (inactive) | 8.2 µM (inactive) | 2.98 µM (inactive) | –
CCOC(=O)c1c(N)sc2c1C(C(=O)OCC)CC2 (centres undefined) | > 100 µM (inactive) | – | 76.7 µM (inactive) | – | > 100 µM (inactive) | – | > 100 µM (inactive) | > 100 µM (inactive) | 34.4 µM (inactive) | > 100 µM (inactive) | – | 44.7 µM (inactive) | 91.4 µM (inactive) | 62.1 µM (inactive) | > 100 µM (inactive) | > 100 | > 100 µM (inactive) | 45.3 µM (inactive) | 46.5 µM (inactive) | –
O=C1C2CCCCC2C(=O)N1n1c(Cc2ccccc2)n[nH]c1=O (centres undefined) | > 100 µM (inactive) | > 100 µM (inactive) | > 100 µM (inactive) | > 100 µM (inactive) | > 100 µM (inactive) | > 100 µM (inactive) | > 100 µM (inactive) | > 100 µM (inactive) | > 100 µM (inactive) | > 100 µM (inactive) | > 100 µM (inactive) | > 100 µM (inactive) | > 100 µM (inactive) | > 100 µM (inactive) | > 100 µM (inactive) | > 100 | > 100 µM (inactive) | > 100 µM (inactive) | > 100 µM (inactive) | –
O=C(NCCCCN(CCCNC(=O)C(F)(F)F)Cc1ccc2ccccc2c1)C(F)(F)F | 14.9 µM (inactive) | 17.6 µM (inactive) | 16.7 µM (inactive) | 14.3 µM (inactive) | – | 23 µM (inactive) | 13.7 µM (inactive) | 24.3 µM (inactive) | – | 17.5 µM (inactive) | 14.5 µM (inactive) | 17.2 µM (inactive) | 19.1 µM (inactive) | 16.4 µM (inactive) | 19.2 µM (inactive) | 17.3 | 15.6 µM (inactive) | > 10 µM (inactive) | 16.7 µM (inactive) | 21 µM (inactive)
O=C(CSCC(=O)N/N=C\c1cc(Br)cc(Br)c1O)N/N=C\c1cc(Br)cc(Br)c1O | 33.7 µM (inactive) | 14.4 µM (inactive) | – | 23.4 µM (inactive) | 29.9 µM (inactive) | 53.5 µM (inactive) | 39.6 µM (inactive) | 12.9 µM (inactive) | 23.7 µM (inactive) | 25.4 µM (inactive) | 29.4 µM (inactive) | 16.6 µM (inactive) | 18 µM (inactive) | 44.6 µM (inactive) | 25 µM (inactive) | 22.5 | 32.5 µM (inactive) | – | 21.9 µM (inactive) | 62.4 µM (inactive)
